The record followed here is patent US20260042755A1, “GPR6 INVERSE AGONISTS” (MapLight Therapeutics, Inc., priority 2022, published 2026).

For one assay, the target named is T1, GPR6 (Homo sapiens, UniProt P46095).
T1 construct: expressed in transfected cells; host or cells: CHO cells
Kind of assay: GPR6 antagonist functional cAMP assay (LANCE Ultra cAMP TR-FRET, CHO cells stably expressing GPR6). It is filed as cell-based. The settings on record: CHO cells stably expressing GPR6, cAMP assay. In short, it runs like this:
(§1)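 Compounds, at 0.1% final DMSO, acted on the cells for 45 minutes at 37 °C in the presence of the phosphodiesterase inhibitor Ro 20-1724 (150 μM). After lysis and detection, plates were shaken 1 h at room temperature and emission at 665 nm was recorded. Normalized data gave IC50 values.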
On the technique in general: cAMP levels reflect the balance of adenylyl cyclase and phosphodiesterase activity.

Another assay deals with T2, GPR3 (Homo sapiens, UniProt P46089).
T2 construct: expressed in transfected cells; host or cells: CHO cells
T2 sequence (P46089 whole entry, species assumed): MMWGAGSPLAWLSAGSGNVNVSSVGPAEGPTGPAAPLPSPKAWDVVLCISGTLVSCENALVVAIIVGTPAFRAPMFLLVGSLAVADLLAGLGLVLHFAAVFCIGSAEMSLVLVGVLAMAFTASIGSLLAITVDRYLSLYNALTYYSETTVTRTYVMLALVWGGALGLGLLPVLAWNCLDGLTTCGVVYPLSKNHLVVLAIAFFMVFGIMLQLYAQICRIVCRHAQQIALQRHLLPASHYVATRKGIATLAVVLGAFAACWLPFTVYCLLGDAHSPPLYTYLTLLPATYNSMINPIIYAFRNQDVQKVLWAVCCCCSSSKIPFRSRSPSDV
Put plainly: GPR3 antagonist functional cAMP assay (LANCE Ultra cAMP TR-FRET, CHO cells stably expressing GPR3). It is filed as cell-based. The settings on record: CHO cells stably expressing GPR3, cAMP assay. In short, it runs like this:
as §1

The structures appear in SMILES notation. Bounds are passed on as bounds.

T1 sequence (P46095 whole entry): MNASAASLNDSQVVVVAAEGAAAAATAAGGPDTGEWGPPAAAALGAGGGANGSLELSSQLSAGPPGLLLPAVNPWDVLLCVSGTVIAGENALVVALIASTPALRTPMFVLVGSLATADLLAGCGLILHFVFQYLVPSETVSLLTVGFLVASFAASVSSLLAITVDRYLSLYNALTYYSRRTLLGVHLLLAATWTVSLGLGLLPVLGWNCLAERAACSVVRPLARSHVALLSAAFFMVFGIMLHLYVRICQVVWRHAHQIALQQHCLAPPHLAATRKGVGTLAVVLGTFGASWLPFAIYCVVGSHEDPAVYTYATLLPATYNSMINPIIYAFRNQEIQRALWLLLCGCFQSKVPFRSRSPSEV

The term IC50 denotes the concentration that gives 50% inhibition. In the case of `CC(=O)N1CCc2nc(N3CCN(Cc4ccoc4)CC3)c(-c3cnn(C)c3)nc2C1` [Compound 529, 1-(2-{4-[(3-furyl)methyl]-1-piperazinyl}-3-(1-methyl-4-pyrazolyl)-5,6,7,8-tetrahydro-1,4,6-triaza-6-naphthyl)-1-ethanone], the IC50 at GPR6 was 1 to 30 µM; at GPR3, no less than 30 µM.

As for `CC(=O)N1CCc2nc(N3CCN(Cc4cccc(=O)[nH]4)CC3)c(-c3cnn(C)c3)nc2C1` [Compound 530, 6-({4-[6-acetyl-3-(1-methyl-4-pyrazolyl)-5,6,7,8-tetrahydro-1,4,6-triaza-2-naphthyl]-1-piperazinyl}methyl)-2(1H)-pyridinone], the IC50 against GPR6 and at GPR3 was no less than 30 µM throughout.

With `CC(=O)N1CCc2nc(N3CCN(Cc4ccc[nH]c4=O)CC3)c(-c3cnn(C)c3)nc2C1` [Compound 531, 3-({4-[6-acetyl-3-(1-methyl-4-pyrazolyl)-5,6,7,8-tetrahydro-1,4,6-triaza-2-naphthyl]-1-piperazinyl}methyl)-2(1H)-pyridinone], the IC50 on GPR6 and at GPR3 was no less than 30 µM each time.

Regarding `CC(=O)N1CCc2nc(N3CCN(Cc4ccc(=O)[nH]c4)CC3)c(-c3cnn(C)c3)nc2C1` [Compound 532, 5-({4-[6-acetyl-3-(1-methyl-4-pyrazolyl)-5,6,7,8-tetrahydro-1,4,6-triaza-2-naphthyl]-1-piperazinyl}methyl)-2(1H)-pyridinone], the IC50 against GPR6 and against GPR3 was no less than 30 µM throughout.

For `CC(=O)N1CCc2nc(N3CCN(Cc4cccc(=O)n4C)CC3)c(-c3cnn(C)c3)nc2C1` [Compound 533, 6-({4-[6-acetyl-3-(1-methyl-4-pyrazolyl)-5,6,7,8-tetrahydro-1,4,6-triaza-2-naphthyl]-1-piperazinyl}methyl)-1-methyl-2(1H)-pyridinone], the IC50 against GPR6 and against GPR3 was no less than 30 µM throughout.

Turning to `CC(=O)N1CCc2nc(N3CCN(Cc4cccn(C)c4=O)CC3)c(-c3cnn(C)c3)nc2C1` [Compound 534, 3-({4-[6-acetyl-3-(1-methyl-4-pyrazolyl)-5,6,7,8-tetrahydro-1,4,6-triaza-2-naphthyl]-1-piperazinyl}methyl)-1-methyl-2(1H)-pyridinone], the IC50 at GPR6 and at GPR3 was no less than 30 µM throughout.

For `CC(=O)N1CCc2nc(N3CCN(Cc4ccc(=O)n(C)c4)CC3)c(-c3cnn(C)c3)nc2C1` [Compound 535, 5-({4-[6-acetyl-3-(1-methyl-4-pyrazolyl)-5,6,7,8-tetrahydro-1,4,6-triaza-2-naphthyl]-1-piperazinyl}methyl)-1-methyl-2(1H)-pyridinone], the half-inhibitory concentration (IC50) at GPR6 and at GPR3 was no less than 30 µM throughout.

With `CC(=O)N1CCc2nc(N3CCN(Cc4cn[nH]c4)CC3)c(-c3cnn(C)c3)nc2C1` [Compound 536, 1-[3-(1-methyl-4-pyrazolyl)-2-{4-[(4-pyrazolyl)methyl]-1-piperazinyl}-5,6,7,8-tetrahydro-1,4,6-triaza-6-naphthyl]-1-ethanone], the IC50 at GPR6 and at GPR3 was no less than 30 µM in each case.

`CC(=O)N1CCc2nc(N3CCN(Cc4ccco4)CC3)c(-c3cnn(C)c3)nc2C1` [Compound 537, 1-[2-(4-furfuryl-1-piperazinyl)-3-(1-methyl-4-pyrazolyl)-5,6,7,8-tetrahydro-1,4,6-triaza-6-naphthyl]-1-ethanone]: the IC50 at GPR6 and at GPR3 was 1 to 30 µM throughout.

Regarding `CC(=O)N1CCc2nc(N3CCN(C(=O)c4ccc(Cl)cc4)CC3)c(-c3cnn(C)c3)nc2C1` [Compound 538, 1-{2-[4-(p-chlorobenzoyl)-1-piperazinyl]-3-(1-methyl-4-pyrazolyl)-5,6,7,8-tetrahydro-1,4,6-triaza-6-naphthyl}-1-ethanone], the results for the IC50 against GPR6 and against GPR3 were 0.1 to 1 µM and 1 to 30 µM, respectively.

For `CC(=O)N1CCc2nc(N3CCN(C(=O)c4ccc(Cl)c(C)c4)CC3)c(-c3cnn(C)c3)nc2C1` [Compound 539, 1-{2-[4-(4-chloro-3-toluoyl)-1-piperazinyl]-3-(1-methyl-4-pyrazolyl)-5,6,7,8-tetrahydro-1,4,6-triaza-6-naphthyl}-1-ethanone], the IC50 against GPR6 and on GPR3 was 1 to 30 µM throughout.

For the compound `CC(=O)N1Cc2nc(-c3cnn(C)c3)c(N3CCC(Oc4ccc(F)cc4F)CC3)nc2C(C)C1` (centres unmarked) [Compound 540, 1-{2-[4-(2,4-difluorophenoxy)-1-piperidyl]-8-methyl-3-(1-methyl-4-pyrazolyl)-5,6,7,8-tetrahydro-1,4,6-triaza-6-naphthyl}-1-ethanone], the IC50 against GPR6 is less than 0.1 µM; against GPR3 it was 1 to 30 µM.

Turning to `CC(=O)N1CCc2nc(N3CCC(C(=O)c4ccc(F)cc4F)CC3)c(-c3cnn(C)c3)nc2C1` [Compound 541, 1-{2-[4-(2,4-difluorobenzoyl)-1-piperidyl]-3-(1-methyl-4-pyrazolyl)-5,6,7,8-tetrahydro-1,4,6-triaza-6-naphthyl}-1-ethanone], the IC50 on GPR6 was in the range of 0.1 to 1 µM; on GPR3, 1 to 30 µM.

Regarding `CC(=O)N1CCc2nc(N3CCC(=Cc4ccc(F)cc4F)CC3)c(-c3cnn(C)c3)nc2C1` [Compound 542, 1-(2-(4-(2,4-difluorobenzylidene)piperidin-1-yl)-3-(1-methyl-1H-pyrazol-4-yl)-7,8-dihydropyrido[3,4-b]pyrazin-6(5H)-yl)ethan-1-one], the IC50 at GPR6 was less than 0.1 µM; on GPR3 it was 0.1 to 1 µM.

For the compound `CC(=O)N1CCc2nc(N3CCC(Oc4ccc(F)cc4F)CC3)c(C3CCN(S(C)(=O)=O)C3)nc2C1` (centres unmarked) [Compound 543, 1-{2-[4-(2,4-difluorophenoxy)-1-piperidyl]-3-(1-mesyl-3-pyrrolidinyl)-5,6,7,8-tetrahydro-1,4,6-triaza-6-naphthyl}-1-ethanone], the IC50 at GPR6 and against GPR3 was 1 to 30 µM throughout.

In the case of `CC(=O)N1CCc2nc(N3CCC(Oc4ccc(F)cc4F)CC3)c(C3CCN(C4COC4)C3)nc2C1` (centres unmarked) [Compound 544, 1-{2-[4-(2,4-difluorophenoxy)-1-piperidyl]-3-[1-(3-oxetanyl)-3-pyrrolidinyl]-5,6,7,8-tetrahydro-1,4,6-triaza-6-naphthyl}-1-ethanone], the IC50 against GPR6 and against GPR3 was 1 to 30 µM in each case.

For `CC(=O)N1CCc2nc(N3CCC(C(O)c4ccc(F)cc4F)CC3)c(-c3cnn(C)c3)nc2C1` (centres unmarked) [Compound 545, 1-(2-{4-[(2,4-difluorophenyl)hydroxymethyl]-1-piperidyl}-3-(1-methyl-4-pyrazolyl)-5,6,7,8-tetrahydro-1,4,6-triaza-6-naphthyl)-1-ethanone], the IC50 on GPR6 is 0.1 to 1 µM; on GPR3, 1 to 30 µM.

With `COC[C@H]1C[C@@H]1c1nc2c(nc1N1CCC(Oc3ccc(F)cc3F)CC1)CCN(C(C)=O)C2` [Compound 546, 1-{3-[(1S,2S)-2-(methoxymethyl)cyclopropyl]-2-[4-(2,4-difluorophenoxy)-1-piperidyl]-5,6,7,8-tetrahydro-1,4,6-triaza-6-naphthyl}-1-ethanone], the half-inhibitory concentration (IC50) at GPR6 was less than 0.1 µM; at GPR3, 1 to 30 µM.

Take `COC[C@@H]1C[C@H]1c1nc2c(nc1N1CCC(Oc3ccc(F)cc3F)CC1)CCN(C(C)=O)C2` [Compound 547, 1-{3-[(1R,2R)-2-(methoxymethyl)cyclopropyl]-2-[4-(2,4-difluorophenoxy)-1-piperidyl]-5,6,7,8-tetrahydro-1,4,6-triaza-6-naphthyl}-1-ethanone]: the IC50 against GPR6 and on GPR3 was 1 to 30 µM each time.

For the compound `CC(=O)N1CCc2nc(N3CCN(Cc4c[nH]cn4)CC3)c(-c3cnn(C)c3)nc2C1` [Compound 548, 1-(2-{4-[(4-imidazolyl)methyl]-1-piperazinyl}-3-(1-methyl-4-pyrazolyl)-5,6,7,8-tetrahydro-1,4,6-triaza-6-naphthyl)-1-ethanone], the IC50 on GPR6 and on GPR3 was no less than 30 µM each time.

Regarding `CCn1cc(-c2nc3c(nc2N2CCN(C(=O)c4ccc(Cl)cc4)CC2)CCN(C(C)=O)C3)cn1` [Compound 549, 1-{2-[4-(p-chlorobenzoyl)-1-piperazinyl]-3-(1-ethyl-4-pyrazolyl)-5,6,7,8-tetrahydro-1,4,6-triaza-6-naphthyl}-1-ethanone], the concentration for half-maximal inhibition (IC50) fell in the range of 0.1 to 1 µM against GPR6 and 1 to 30 µM against GPR3.

In the case of `CCn1cc(-c2nc3c(nc2N2CCN(C(=O)c4ccc(Cl)c(C)c4)CC2)CCN(C(C)=O)C3)cn1` [Compound 550, 1-{2-[4-(4-chloro-3-toluoyl)-1-piperazinyl]-3-(1-ethyl-4-pyrazolyl)-5,6,7,8-tetrahydro-1,4,6-triaza-6-naphthyl}-1-ethanone], the IC50 on GPR6 and against GPR3 was 1 to 30 µM each time.

Consider `CC(=O)N1CCc2nc(N3CCN(C(CO)(CO)c4cc(F)ccc4F)CC3)c(-c3cnn(C)c3)nc2C1` [Compound 551, 1-(2-{4-[1-(2,5-difluorophenyl)-2-hydroxy-1-(hydroxymethyl)ethyl]-1-piperazinyl}-3-(1-methyl-4-pyrazolyl)-5,6,7,8-tetrahydro-1,4,6-triaza-6-naphthyl)-1-ethanone], for which the figures for the IC50 at GPR6 and against GPR3 were 0.1 to 1 µM and no less than 30 µM, respectively.

With `CC(=O)N1CCc2nc(N3CCN(C(CO)(CO)c4ccccc4F)CC3)c(-c3cnn(C)c3)nc2C1` [Compound 552, 1-(2-{4-[1-(o-fluorophenyl)-2-hydroxy-1-(hydroxymethyl)ethyl]-1-piperazinyl}-3-(1-methyl-4-pyrazolyl)-5,6,7,8-tetrahydro-1,4,6-triaza-6-naphthyl)-1-ethanone], the IC50 at GPR6 is 1 to 30 µM; against GPR3 it was no less than 30 µM.

Turning to `Cn1cc(-c2nc3cnc(C(C)(O)CO)cc3nc2N2CCC(Oc3ccc(F)cc3F)CC2)cn1` (centres unmarked) [Compound 556, 2-{2-[4-(2,4-difluorophenoxy)-1-piperidyl]-3-(1-methyl-4-pyrazolyl)-1,4,6-triaza-7-naphthyl}-1,2-propanediol], the values for the IC50 against GPR6 and at GPR3 were 0.1 to 1 µM and 1 to 30 µM, respectively.
